This passage reports MIC results from US20060014702A1, “Antimicrobial agent” (priority 2002, published 2006).

Holding throughout (assay): Minimum Inhibitory Concentration (MIC) assay
Holding throughout (assay type): cell-based

One test relates to Bacillus subtilis. The settings on record: LB broth, 37° C., 6 hours. The method, then:
(§1) Inhibition of various bacteria by compounds 4 (n=9) and 6 (n=9) is described in Table 1. The biological data were determined by minimum Inhibitory Concentration (MIC) Assays. Each compound was added to 4 ml LB broth at a starting concentration of 200 μg/ml. Serial dilutions were then made, 1 in 2 at each step, ending with 0.2 μg/ml. 5 μL of a saturated culture was added to each serial dilution, and incubated at 37° C. with shaking for 6 hours. The MIC was then determined as the lowest concentration showing inhibited bacterial growth.

A further test relates to Enterococcus faecalis. The settings on record: LB broth, 37° C., 6 hours. The method, then: as §1
The subject of another test is Mycobacterium smegmatis. Particulars: Mycolicibacterium smegmatis, LB broth, 37° C., 6 hours. The method, then: as §1
A further test has as its system Staphylococcus aureus. The settings on record: LB broth, 37° C., 6 hours. The method, then:
as §1

In brackets after ≈: the same amount, converted by molar mass. Where only a bound is given, the exact number is not on record here.

By MIC is commonly meant the smallest concentration in the dilution series that meets the test's criterion for growth inhibition. The low end stands for a more susceptible organism, the high end for a less susceptible organism. In the case of `CCCCCCCCCCS[C@@H]1O[C@@H]([C@H](O)CO)[C@H](O)[C@H]1O` [4 (n = 9), Decyl 1-thio-β-D-galactofuranoside], the MIC in the test on Bacillus subtilis was 25 µg/mL (≈ 74.3 µM); in the test on Enterococcus faecalis, greater than 200 µg/mL; with Mycobacterium smegmatis, less than 0.2 µg/mL; in the test on Staphylococcus aureus, less than 0.2 µg/mL.

Take `CCCCCCCCCCC(CCCCCCCCCC)S[C@@H]1O[C@@H]([C@H](O)CO)[C@H](O)[C@H]1O` [6 (n = 9), 11-heneicosanyl 1-thio-β-D-galactofuranoside]: the minimum inhibitory concentration (MIC) against Bacillus subtilis is greater than 200 µg/mL; in the test on Enterococcus faecalis, 200 µg/mL (≈ 408 µM); against Mycobacterium smegmatis, less than 0.2 µg/mL; against Staphylococcus aureus, less than 0.2 µg/mL.
